Converted amounts (≈) assume the structure as drawn. “And” between values parts separate entries of the source, which are not always exact repeats. Equal entries are not always repeated. Where only a bound is given, the exact number is not on record here.

Data set [1] is described as follows: Cytotoxicity, neutral red uptake assay. It counts as cell-based, human. Particulars: human. Here is the method: (§1) The cytotoxic effect of the compounds, expressed as cell viability, was assessed on a permanent fibroblast cell line derived from human lung (MRC-5) (ATCC CCL-171). MRC-5 fibroblasts were grown as monolayers in minimum essential Eagle medium (MEM) with Earle’s salts, 2 mM l-glutamine and 2.2 g/L sodium bicarbonate, supplemented with 10% heat inactivated fetal bovine serum (FBS), 100 IU/mL penicillin and 100 µg/mL streptomycin in a humidified incubator with 5% CO2 in the air at 37 °C. Cell passage was maintained between 10 and 16. The medium was changed every 2 days.
(§2) Confluent cultures of MRC-5 fibroblasts were treated with medium containing the compounds at concentrations ranging from 0 to 1000 µM. For comparison purposes, the commercial antifungals CPZ and TDM were used as references, the products were first dissolved in DMSO and then in MEM, supplemented with 2% FBS. The final content of DMSO in the test medium and controls was 1%. Cells were exposed for 24 h to the test medium with or without the compound (control). Each concentration was tested in quadruplicate together with the control, and repeated three times in separate experiments. At the end of the incubation, the neutral red uptake (NRU) assay was carried out. To calculate the IC50 values (concentration that produces a 50% inhibitory effect on the evaluated parameter), the results were transformed to percentage of controls and the IC50 values were graphically obtained from the dose–response curves.

The test system of another data set is B. cinerea. In words: In vivo antifungal activity on infected grapes under greenhouse conditions. Also on record: species or system Botrytis cinerea on Vitis vinifera grapes. Particulars: 7 days; for Efficacy (preventive rate) against B. cinerea on grapes: 2.5 µg/mL; for Efficacy (control effectiveness) against B. cinerea on grapes: 12.5 μg/mL. Here is the method: The potential usefulness of compound 4 against B. cinerea was assessed under greenhouse conditions using infected grapes (in vivo), at 7 days of exposure. The compound was evaluated at 2.5 μg/mL and 12.5 μg/mL, CPZ was used as positive control (at 12.5 μg/mL). […] The blank control (untreated grapes) was completely affected by B cinerea (100% incidence) (Fig. 4).
The in vivo activity was determined on the Vitis vinifera grapes inoculated with a Botrytis cinerea conidia suspension. Appropriate amounts of the tested compounds were dissolved in DMSO and then suspended in the distilled water (DMSO concentration < 2%).
Healthy grapes, previously washed with a diluted solution of sodium hypochlorite, were punctured with 100 ⎧L of a solution of compound 4 (concentration of 12.5 ⎧g/mL and 2.5 ⎧g/mL) and evaporated at room temperature (~ 25 °C) during 24 h to favour the penetration of the compound. The same procedure was carried out with CPZ and the control blank (< 2% DMSO solution). The grapes epidermis was punctured with a sterile inoculation needle (Ø, 4.5 mm), 200 µL of the pathogen was inoculated at a concentration of 5.10^4 UFC/mL. The fruits were incubated at 20 °C to favour fungal growth, and fungal growth was assessed 7 days later. CPZ was used as positive control under the same conditions. The control effectiveness of the target compound was calculated as (1 − c/d) × 100, where c is the diameter of the treatment and d is the diameter of the blank control (˂ 2% DMSO solution).

Another data set concerns A. niger (ATCC 9029). In words: In vitro antifungal activity, broth microdilution (MIC100). It counts as cell-based, Aspergillus niger. Particulars: 48 h, total growth inhibition; for Fungicidal activity MIC100, AN: 30 °C. The method, then: (§3) Fungal growth was assessed at six concentrations (3.1–100 μg/mL), using enriched Czapek broth in the presence of triazole 1-8 (Fig. 2). Each treatment was carried out in triplicate. The Minimum Inhibitory Concentration (MIC100) was determined and was defined as the minimum concentration required to inhibit the complete fungal growth inhibition under the conditions of the assay. Triadimefon (TDM) and cyproconazole (CPZ) were used as positive control. In order to evaluate the efficacy of the new compounds to control fungi affecting vineyards, imperfect fungi isolated from infected grapes from the province of San Juan in Argentina were employed. Significant differences were determined by t-Student hypothesis test p, at 95% confidence. In general, moderate to good activity was observed compared to the reference compounds as well as some selectivity against microorganisms.
(§4) The imperfect fungi used for the assays included Botrytis cinerea isolated from grapevine samples, Aspergillus fumigatus (ATTC 26934), A. niger (ATCC 9029), A. ustus (PN-S4), A. japonicus (M15C), A. terreus (M16C) and Fusarium oxysporum (M15-Pa) isolated from soil samples from the province of San Juan, Argentina. The microorganisms were grown on Czapek-yeast extract agar (CYA) prepared with yeast extract, K2HPO4, saccharose, agar, distilled water and enriched with a solution of mineral salts (NaNO3, KCl, MgSO4.7H2O and FeSO4.7 H2O). Inocula were adjusted to 1–5 × 10^4 colony forming units (CFU/ mL).
(§5) The minimum inhibitory concentration (MIC) of each compound was evaluated using broth microdilution techniques in 96-well microtiter plates according to the guidelines of the National Committee for Clinical Laboratory Standards for filamentous fungi M 38 A. The starting inoculum was 1–5 × 10^4 CFU/mL in accordance with the Clinical and Laboratory Standards Institute (CLSI, formerly the National Committee for Clinical Laboratory Standards [NCCLS]) (M27-A3 document for yeasts, and M38-A2 document for filamentous fungi).
(§6) Microtiter plates were incubated at 30 °C for Aspergillus and Fusarium, and 22 °C for B. cinerea in a moist and dark chamber. MIC values were recorded after 48 h for Aspergillus and Fusarium spp., and after 72 h for B. cinerea, according to the fungal growth control. TDM and CPZ were used as positive controls (12.5–50 μg/mL). Stock solutions were two-fold diluted with RPMI from 1000 to 0.98 μg/mL (final volume equal to 100 μL), and a final DMSO concentration ≤ 1%. An inoculum suspension (100 μL) was added to each well with the exception of the sterility control. Endpoints were defined as the lowest compound concentration resulting in total growth inhibition (MIC100) compared to the growth in control wells. MICs values ≤ 50 μg/mL were considered of interest. The assay was carried out in triplicate.
On the technique in general: Dilution methods test growth across graded concentrations, often in twofold steps.

The test system of data set [2] is B. cinerea (isolated from grapes). Described as above. It counts as cell-based, Botrytis cinerea. To be noted: B. cinerea. The method, then: as §3, §4, §5, §6
For the next data set, the system named is A. ustus (PN-S4). Described as above. It counts as cell-based, Aspergillus ustus. Particulars: 30 °C, 48 h, total growth inhibition. The method, then:
as §3, §4, §5, §6

The test system of the next data set is B. cinerea hyphae. In words: Effect on B. cinerea hyphal morphology (optical microscopy). It counts as cell-based, Botrytis cinerea. To be noted: 12.5 μg/mL. Here is the method:
Changes in the hyphae morphology of B. cinerea treated with compound 4 were observed using optical microscopy.
The same procedure was carried out with CPZ and blank control (< 2% DMSO solution).

Data set [3] has as its system Aspergillus fumigatus (ATTC 26934). In words: In vitro antifungal activity, broth microdilution (MIC100). Particulars: A. fumigatus, 30 °C, 48 h, total growth inhibition. It counts as cell-based. The method, then:
as §3, §4, §5, §6

The test system of data set [4] is Fusarium oxysporum (M15-Pa). Described as above. It counts as cell-based. To be noted: 30 °C, 48 h, total growth inhibition. The method, then: as §3, §4, §5, §6
The subject of a further data set is A. japonicus (M15C). The data set is described as above. It counts as cell-based, Aspergillus japonicus. To be noted: 48 h; for Fungicidal activity MIC100, AJ: A. japonicus, 30 °C, total growth inhibition. Here is the method: as §3, §4, §5, §6
Another data set concerns A. terreus (M16C). Described as above. It is filed as cell-based, Aspergillus terreus. To be noted: 48 h; for Fungicidal activity MIC100, AT: A. terreus, 30 °C, total growth inhibition. Here is the method:
as §3, §4, §5, §6

Data set [5] has as its system human lung fibroblasts MRC-5. The data set is described as follows: Cytotoxicity, neutral red uptake assay. It is filed as cell-based. To be noted: MRC-5 fibroblasts, 24 h exposure, neutral red uptake; ± SD; read-out: Cytotoxicity IC50. Here is the method:
as §1, §2

[6] abbreviates: 22 °C, 72 h, total growth inhibition.

Usually IC50 stands for the point on the concentration scale where inhibition reaches its midpoint. In [1], `CC(C1CC1)C(O)(Cn1cncn1)c1ccc(-c2ccc(F)cc2)cc1` (stereo not shown) [Compound 4, 3-Cyclopropyl-2-(4’-fluorobiphenyl-4-yl)-1-(1H-1,2,4-triazol1-yl)butan-2-ol] displayed an IC50 at 24 h of 61.1 ± 3.7 µM. In the data set with B. cinerea, the “Efficacy (preventive rate) against B. cinerea on grapes” value is 50.6%. For the same molecule, in the data set on B. cinerea, the “Efficacy (control effectiveness) against B. cinerea on grapes” value was found to be 100%. For the same molecule, the “Fungicidal activity MIC100, AN” value in the data set with A. niger (ATCC 9029) came to 10 ± 0.5 µg/mL. The MIC100 (complete growth inhibition) with A. niger (ATCC 9029) (Aspergillus niger, ATCC9029, 30 °C, read-out: Fungicidal activity MIC100, AN) was 10 µg/mL (≈ 28.5 µM); in [2] (Botrytis cinerea, 22 °C, 72 h, total growth inhibition, read-out: Fungicidal activity MIC100, BC), 12.5 µg/mL (≈ 35.6 µM); in the data set on A. ustus (PN-S4) (Aspergillus ustus, read-out: Fungicidal activity MIC100, AU), 14 µg/mL (≈ 39.8 µM); in the data set on A. terreus (M16C) (Aspergillus terreus, read-out: Fungicidal activity MIC100, AT, A. terreus, 30 °C, total growth inhibition), 10 µg/mL (≈ 28.5 µM). Also, in data set [2] (setting [6]), the “Fungicidal activity MIC100, BC” value was 12.5 ± 0.9 µg/mL. Moreover, the MIC in [2] (Botrytis cinerea, molar conversion of the µg/mL value, read-out: MIC100 against B. cinerea expressed) worked out at 35.5 µM (≈ 12.5 µg/mL); with A. japonicus (M15C) (read-out: Fungicidal activity MIC100, AJ), 15 µg/mL (≈ 42.7 µM). Moreover, the “Fungicidal activity MIC100, AU” value in the data set on A. ustus (PN-S4) is 14 ± 0.7 µg/mL. Also, the “Hyphal morphology of B. cinerea” value in the data set with B. cinerea hyphae is “morphological alterations, including irregular hyphae, variable diameter and the presence of internal vacuoles”. In data set [3], the “Fungicidal activity MIC100, AF” value stood at 12.5 ± 0.8 µg/mL. Further, the Minimum inhibitory concentration (MIC100) in data set [3] (Aspergillus fumigatus, read-out: Fungicidal activity MIC100, AF) was 12.5 µg/mL (≈ 35.6 µM). Besides, the MIC100 (minimum concentration for complete growth inhibition) in [4] (Fusarium oxysporum, F. oxysporum, read-out: Fungicidal activity MIC100, F) was ≥ 100 µg/mL. The “Fungicidal activity MIC100, AJ” value in the data set on A. japonicus (M15C) amounted to 15 ± 0.7 µg/mL. The “Fungicidal activity MIC100, AT” value in the data set with A. terreus (M16C) is on record as 10 ± 0.4 µg/mL.

Take “1-(4-chlorophenyl)-3-cyclopropyl-2-(1H-1,2,4-triazol-1-yl)butan-1-ol [CPZ, reference compound]”: the IC50 in data set [5] came to 267 ± 18.7 µM. In addition, in the data set with B. cinerea, the “Efficacy (preventive rate) against B. cinerea on grapes” value worked out at 38.3% and the “Efficacy (control effectiveness) against B. cinerea on grapes” value is 75.3%. Besides, in the data set with A. niger (ATCC 9029), the “Fungicidal activity MIC100, AN” value is on record as 25 ± 1.5 µg/mL. Besides, the “Fungicidal activity MIC100, BC” value in data set [2] (setting [6]) came to 12.5 ± 0.8 µg/mL. The “Fungicidal activity MIC100, AU” value in the data set on A. ustus (PN-S4) is 15 ± 0.7 µg/mL. The “Fungicidal activity MIC100, AF” value in [3] was 25 µg/mL and 25 ± 1.4 µg/mL. The “Fungicidal activity MIC100, F” value in [4] was ≥ 100 µg/mL. In addition, the “Fungicidal activity MIC100, AJ” value in the data set on A. japonicus (M15C) is on record as 25 ± 1.3 µg/mL. Moreover, the “Fungicidal activity MIC100, AT” value in the data set on A. terreus (M16C) is 15.0 µg/mL and 15 ± 0.9 µg/mL.

The values are drawn from publication PMC8907375, “Arylated analogues of cypronazole: fungicidal effect and activity on human fibroblasts. Docking analysis and molecular dynamics simulations” (Natural Products and Bioprospecting, 2022).
